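Following 48 hours of exposure in 96-well plates, responses at five concentrations were used to interpolate endpoints linearly. Abbreviation: GI50, concentration required for 50% inhibition of growth.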 Active and inactive are the calls of the source. Cut-off read from the data, not from the text of the source: active = GI50 up to about 1.1 µM and inactive = higher.
Tests used:
Assay in all cases: DTP human tumour cell line panel, 48 h
EKVX = test system: EKVX
U-251 = test system: U-251
SR = test system: SR
NCI-H23 = test system: NCI-H23
KM12 = test system: KM12
HT-29 = test system: HT-29
SF-295 = test system: SF-295
M14 = test system: M14
MCF7 = test system: MCF7
HOP-92 = test system: HOP-92
TK-10 = test system: TK-10
CAKI-1 = test system: CAKI-1
K562 = test system: K562
UO-31 = test system: UO-31
UACC-257 = test system: UACC-257
NCI-H522 = test system: NCI-H522
786-0 = test system: 786-0
NCI/ADR-RES = test system: NCI/ADR-RES
SNB-19 = test system: SNB-19
RXF 393 = test system: RXF 393
MOLT-4 = test system: MOLT-4
A549 = test system: A549
SF-268 = test system: SF-268
SK-OV-3 = test system: SK-OV-3
MDA-MB-231 = test system: MDA-MB-231
UACC-62 = test system: UACC-62
RPMI-8226 = test system: RPMI-8226
HL-60 = test system: HL-60
LOX IMVI = test system: LOX IMVI
IGROV-1 = test system: IGROV-1
Malme-3M = test system: Malme-3M
ACHN = test system: ACHN
BT-549 = test system: BT-549
NCI-H226 = test system: NCI-H226
MDA-N = test system: MDA-N
SK-MEL-2 = test system: SK-MEL-2
OVCAR-8 = test system: OVCAR-8
SW-620 = test system: SW-620
COLO 205 = test system: COLO 205
OVCAR-5 = test system: OVCAR-5
Hs-578T = test system: Hs-578T
SN12C = test system: SN12C
PC-3 = test system: PC-3
SF-539 = test system: SF-539
OVCAR-4 = test system: OVCAR-4
HOP-62 = test system: HOP-62
MDA-MB-435 = test system: MDA-MB-435
DU-145 = test system: DU-145
SNB-75 = test system: SNB-75
HCT-116 = test system: HCT-116
HCT-15 = test system: HCT-15
HCC 2998 = test system: HCC 2998
SK-MEL-5 = test system: SK-MEL-5
NCI-H460 = test system: NCI-H460
CCRF-CEM = test system: CCRF-CEM
SK-MEL-28 = test system: SK-MEL-28
OVCAR-3 = test system: OVCAR-3

For `COc1cccc(O)c1-c1cc(=O)c2c(O)c(OC)c(OC)c(OC)c2o1` [SKULLCAPFLAVONE II], the GI50 (EKVX) was 32.7 µM (inactive), the GI50 (U-251) was 31.6 µM (inactive) and the GI50 (SR) was 4.82 µM (inactive). For the same compound, the GI50 (NCI-H23) was 24.9 µM (inactive), the GI50 (KM12) was 12 µM (inactive) and the GI50 (HT-29) was 6.5 µM (inactive). For the same compound, the GI50 (SF-295) was 21.1 µM (inactive), the GI50 (M14) was 23.5 µM (inactive) and the GI50 (MCF7) was 27.3 µM (inactive). The GI50 (HOP-92) was 22.1 µM (inactive), the GI50 (TK-10) was 44.8 µM (inactive) and the GI50 (CAKI-1) was 22.8 µM (inactive). For the same compound, the GI50 (K562) was 14.5 µM (inactive), the GI50 (UO-31) was 25.2 µM (inactive) and the GI50 (UACC-257) was 27 µM (inactive). The GI50 (NCI-H522) was 22.7 µM (inactive), the GI50 (786-0) was 42.6 µM (inactive) and the GI50 (NCI/ADR-RES) was 21.8 µM (inactive). For the same compound, the GI50 (SNB-19) was 29.2 µM (inactive), the GI50 (RXF 393) was 14.1 µM (inactive) and the GI50 (MOLT-4) was 29.2 µM (inactive). The GI50 (A549) was 29 µM (inactive), the GI50 (SF-268) was 35.3 µM (inactive) and the GI50 (SK-OV-3) was 28.4 µM (inactive). For the same compound, the GI50 (MDA-MB-231) was 41 µM (inactive), the GI50 (UACC-62) was 14.7 µM (inactive) and the GI50 (RPMI-8226) was 18.7 µM (inactive). The GI50 (HL-60) was 20.4 µM (inactive), the GI50 (LOX IMVI) was 30.2 µM (inactive) and the GI50 (IGROV-1) was 24.2 µM (inactive). The GI50 (Malme-3M) was 36.4 µM (inactive), the GI50 (ACHN) was 38.9 µM (inactive) and the GI50 (BT-549) was 27.2 µM (inactive). For the same compound, the GI50 (NCI-H226) was 47.2 µM (inactive), the GI50 (MDA-N) was 12.9 µM (inactive) and the GI50 (SK-MEL-2) was 20.9 µM (inactive). The GI50 (OVCAR-8) was 30.3 µM (inactive), the GI50 (SW-620) was 31.8 µM (inactive) and the GI50 (COLO 205) was 16.5 µM (inactive). The GI50 (OVCAR-5) was 50.9 µM (inactive), the GI50 (Hs-578T) was 35.9 µM (inactive) and the GI50 (SN12C) was 28 µM (inactive). The GI50 (PC-3) was 15.3 µM (inactive), the GI50 (SF-539) was 36.8 µM (inactive) and the GI50 (OVCAR-4) was 30.3 µM (inactive). For the same compound, the GI50 (HOP-62) was 17.5 µM (inactive), the GI50 (MDA-MB-435) was 10.3 µM (inactive) and the GI50 (DU-145) was 16.4 µM (inactive). For the same compound, the GI50 (SNB-75) was 23 µM (inactive), the GI50 (HCT-116) was 32.1 µM (inactive) and the GI50 (HCT-15) was 18.5 µM. For the same compound, the GI50 (HCC 2998) was 7.59 µM (inactive), the GI50 (SK-MEL-5) was 19 µM (inactive) and the GI50 (NCI-H460) was 19.1 µM (inactive). The GI50 (CCRF-CEM) was 34.5 µM (inactive), the GI50 (SK-MEL-28) was 35.8 µM (inactive) and the GI50 (OVCAR-3) was 22.5 µM (inactive).
